# Assay results: patent publication US20110166112A1, “METHOD FOR STIMULATING PLATELET PRODUCTION” (Eisai, Inc., priority 2009, published 2011)
# Tested on: subjects with chronic ITP who completed 28 days of study treatment
# Assay: Phase 2 6-month rollover study of E5501: effectiveness (durable, transient, overall platelet response, maintenance, steroid use, upward dose titration)
# Type: in vivo, human
# Procedure: This study was a multicenter, parallel-group, rollover study of E5501 in subjects with chronic ITP who were enrolled in and completed 28 days' of study treatment. All subjects who completed the previous study and otherwise met the eligibility criteria for this rollover protocol were enrolled.
# Subjects who rolled over from the previous study were treated for an additional 6 months after completing previous study.
# Initial dose: Subjects who met the efficacy response in the previous study continued to receive their previous blinded dose at entry into this study.
# Dose titration was performed in an open label fashion in 10 mg increments as follows: • Nonresponders, who received initial doses of open-label E5501 10 mg in the previous study, could have their dose increased in 10 mg increments every 14 days to a maximum of 40 mg/day in the absence of platelet response.
# Subjects were also permitted to reduce their dose of ITP-directed concomitant therapy (e.g., steroids). The overall goal of any dose modification was to maintain the subject's peripheral platelet count above 50,000/mm^3 and to decrease the need for ITP-directed concomitant medications (if applicable). During any dose modification of study drug or ITP-directed concomitant medications, platelet counts were collected every week. After platelet counts stabilized, platelet count collection reverted to a biweekly schedule.
# Assessments: Study subjects were evaluated for safety and efficacy (including platelet count) on day 1 and then biweekly while receiving treatment.
# Two primary analysis populations were used to summarize safety and effectiveness: • Safety population: all subjects who received at least 1 dose of study drug and had at least 1 post-treatment safety assessment in either the previous or this study. All safety analyses were performed using this population. • Full Analysis Set (FAS): all subjects who participated in both studies and who had at least one post-treatment effectiveness assessment in this study. All efficacy analyses were performed using this population.
# Secondary Endpoints: The secondary endpoints were markers of effectiveness, including: • 1. Changes in platelet count from baselines of the previous study and of this study by study visit; and • 2. Durable platelet response, defined as subjects who had at least 3 platelet count assessments in the last 14 weeks of the 24-week treatment period, and whose platelet count was at a response level for at least 75% of the time in the last 14 weeks during the 24-week treatment period, with no rescue medication used during the 24-week treatment period. Platelet response level was defined as ≧50,000/mm^3 for subjects whose baseline platelet count was <30,000/mm^3 in the previous study or an increase in baseline platelet count of ≧20,000/mm^3 for subjects receiving steroids whose baseline platelet count in the previous study was ≧30,000/mm^3 but <50,000/mm^3; • 3. Transient platelet response, defined as achievement of a response level for any 4 consecutive weeks during the 24-week treatment period without durable platelet response in the absence of any rescue medication; • 4. Overall platelet response (durable platelet response plus transient platelet response); • 5. Maintenance of platelet response, defined as subjects who were responders in the previous study (e.g., responders on day 28 of the previous study) who achieved a durable response in this study and had no upward dose titration of E5501 during this study; • 6. Permanent discontinuation of steroid use, defined as subjects who used steroid medication within the 2-week period before their first dose of study drug in this study, and for whom concomitant steroid medication was discontinued at least 8 weeks before the end of the treatment period; • 7. Reduction of steroid use by at least 50%. […]
# [1] = FAS, Baseline PC >15K/mm^3, Responders, N assessed 19
# [2] = FAS, Baseline PC ≦15K/mm^3, E5501 Total, N assessed 15
# [3] = FAS, Baseline PC ≦15K/mm^3, Non-Responders, N assessed 9
# [4] = FAS, Baseline PC ≦15K/mm^3, Responders, N assessed 6
# [5] = FAS, History of Splenectomy, E5501 Total, N assessed 17
# [6] = FAS, History of Splenectomy, Non-Responders, N assessed 10
# [7] = FAS, History of Splenectomy, Responders, N assessed 7
# [8] = FAS, No History of Splenectomy, E5501 Total, N assessed 36
# [9] = FAS, No History of Splenectomy, Non-Responders, N assessed 18
# [10] = FAS, No History of Splenectomy, Responders, N assessed 18
# [11] = FAS, ≧3 Lines of Prior Therapy, E5501 Total, N assessed 35
# [12] = FAS, ≧3 Lines of Prior Therapy, Non-Responders, N assessed 22
# [13] = FAS, ≧3 Lines of Prior Therapy, Responders, N assessed 13
# [14] = SE population, E5501 Total (N=36)
# [15] = SE population, Non-Responders (N=15)
# [16] = SE population, Responders (N=21)
smiles,measurement,setting,value
"O=C(Nc1nc(-c2cc(Cl)cs2)c(N2CCN(C3CCCCC3)CC2)s1)c1cnc(N2CCC(C(=O)O)CC2)c(Cl)c1 [E5501, 1-(3-chloro-5-{[4-(4-chlorothiophen-2-yl)-5-(4-cyclohexylpiperazin-1-yl)thiazol-2-yl]carbamoyl}pyridine-2-yl)piperidine-4-carboxylic acid]","Durable Platelet Response, n (%) with response",[1],15 (78.9) n (%)
same,"Overall Platelet Response, n (%) with response",[1],18 (94.7) n (%)
same,"Durable Platelet Response, n (%) with response",[2],4 (26.7) n (%)
same,"Overall Platelet Response, n (%) with response",[2],7 (46.7) n (%)
same,"Durable Platelet Response, n (%) with response",[3],1 (11.1) n (%)
same,"Overall Platelet Response, n (%) with response",[3],3 (33.3) n (%)
same,"Durable Platelet Response, n (%) with response",[4],3 (50.0) n (%)
same,"Overall Platelet Response, n (%) with response",[4],4 (66.7) n (%)
same,"Durable Platelet Response, n (%) with response",[5],5 (29.4) n (%)
same,"Overall Platelet Response, n (%) with response",[5],10 (58.8) n (%)
same,"Durable Platelet Response, n (%) with response",[6],1 (10.0) n (%)
same,"Overall Platelet Response, n (%) with response",[6],5 (50.0) n (%)
same,"Durable Platelet Response, n (%) with response",[7],4 (57.1) n (%)
same,"Overall Platelet Response, n (%) with response",[7],5 (71.4) n (%)
same,"Durable Platelet Response, n (%) with response",[8],23 (63.9) n (%)
same,"Overall Platelet Response, n (%) with response",[8],30 (83.3) n (%)
same,"Durable Platelet Response, n (%) with response",[9],9 (50.0) n (%)
same,"Overall Platelet Response, n (%) with response",[9],13 (72.2) n (%)
same,"Durable Platelet Response, n (%) with response",[10],14 (77.8) n (%)
same,"Overall Platelet Response, n (%) with response",[10],17 (94.4) n (%)
same,overall platelet response rate,"FAS, all subjects",75.5%
same,overall platelet response rate,"FAS, nonresponders",64.3%
same,overall platelet response rate,"FAS, responders",88.0%
same,"Durable Platelet Response, n (%) with response",[11],16 (45.7) n (%)
same,"Overall Platelet Response, n (%) with response",[11],25 (71.4) n (%)
same,"Durable Platelet Response, n (%) with response",[12],7 (31.8) n (%)
same,"Overall Platelet Response, n (%) with response",[12],14 (63.6) n (%)
same,"Durable Platelet Response, n (%) with response",[13],9 (69.2) n (%)
same,"Overall Platelet Response, n (%) with response",[13],11 (84.6) n (%)
same,overall platelet response rate,SE population,94.4%
same,"Durable Platelet Response No, %",[14],(25.0) %
same,"Durable Platelet Response Yes, %",[14],(75.0) %
same,"Transient Platelet Response No, %",[14],(80.6) %
same,"Transient Platelet Response Yes, %",[14],(19.4) %
same,"With Overall Response No, %",[14],(5.6) %
same,"With Overall Response Yes, %",[14],(94.4) %
same,"Durable Platelet Response No, %",[15],(40.0) %
same,"Durable Platelet Response Yes, %",[15],(60.0) %
same,"Transient Platelet Response No, %",[15],(73.3) %
same,"Transient Platelet Response Yes, %",[15],(26.7) %
same,"With Overall Response No, %",[15],(13.3) %
same,"With Overall Response Yes, %",[15],(86.7) %
same,"Durable Platelet Response No, %",[16],(14.3) %
same,"Durable Platelet Response Yes, %",[16],(85.7) %
same,"Transient Platelet Response No, %",[16],(85.7) %
same,"Transient Platelet Response Yes, %",[16],(14.3) %
same,"With Overall Response Yes, %",[16],(100.0) %
same,Durable platelet response rate,"SE population, all subjects",75%
same,Durable platelet response rate,"SE population, non-responders",60.0%
same,Durable platelet response rate,"SE population, responders",85.7%
same,subjects who needed an upward dose titration,all subjects (n=26/53),49%
same,subjects able to decrease their steroid dose by at least 50%,in vivo,Thirteen
same,improved overall response rate when subjects received a dose titration,non-responders in the previous study,87.6%
same,overall response rate,"non-responders on E5501 2.5 mg in previous study, open-label E5501 10 mg in current study",70%
same,overall response rate,"non-responders on E5501 5 mg in previous study, open-label E5501 10 mg in current study",80%
same,overall response rate,"non-responders on placebo in previous study, open-label E5501 10 mg in current study",80%
same,subjects not responding to E5501 10 mg in the previous study who responded at 20 mg,of five subjects,Two
same,subjects who used concomitant steroids able to decrease their concomitant steroid use by at least 50%,regardless of responder status,54.2%
same,subjects who used concomitant steroids able to permanently discontinue using steroids,regardless of responder status,33.3%
same,overall response when subjects received a dose titration,responders in the previous study,100%
same,overall response rate,responders receiving double-blind E5501 10 mg,71.4%
same,"platelet counts from baseline (FIG. 2 FAS, FIG. 3 SE population)",rollover study,markedly increased from baseline
same,durable platelet response estimate,"sensitivity analysis based on 55 subjects, all subjects",50.9%
same,durable platelet response estimate,"sensitivity analysis, non-responders",33.3%
same,durable platelet response estimate,"sensitivity analysis, responders",72%
